“Also recorded” adds a separate entry of the source. Each block holds one compound with its values, some of them ahead of it.
Experiments:
PPARδ/β = molecular target: T1, PPARδ/β (Homo sapiens, UniProt Q03181); test: PPARδ/β ligand trap transgenic zebrafish line; conditions: in vivo
T1 construct: expressed in transfected cells; host or cells: transgenic zebrafish embryos (ligand-trap line)
T1 sequence (Q03181 211-439 limits assumed): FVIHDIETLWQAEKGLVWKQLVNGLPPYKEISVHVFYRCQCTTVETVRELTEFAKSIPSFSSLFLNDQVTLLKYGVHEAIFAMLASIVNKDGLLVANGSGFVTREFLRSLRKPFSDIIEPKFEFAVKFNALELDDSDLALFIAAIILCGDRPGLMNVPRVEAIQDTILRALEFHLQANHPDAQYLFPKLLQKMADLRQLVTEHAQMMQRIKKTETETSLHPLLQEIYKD
Procedure: To test for specificity, idebenone and CoQ10 were also tested on PPARα, and PPARδ/β receptors in vivo and in vitro. […] The same relative responses were obtained with HEK 293 cells grown in culture and transfected with PPAR expression vectors and luciferase reporters (FIG. 5).

hPPARγ = molecular target: T2, hPPARγ (Homo sapiens, UniProt P37231); test: PPARγ ligand trap (LT) zebrafish GFP reporter screen/assay; type: in vivo; parameters: pLT PPARα (aa 178-468) and pLT PPAR γ (aa 188-477) lines; expressed in transfected cells; host or cells: transgenic zebrafish embryos (heat-induced ligand-trap line); conditions: transgenic embryos, 48 hpf images
T2 sequence (P37231 188-477 isoform P37231-2): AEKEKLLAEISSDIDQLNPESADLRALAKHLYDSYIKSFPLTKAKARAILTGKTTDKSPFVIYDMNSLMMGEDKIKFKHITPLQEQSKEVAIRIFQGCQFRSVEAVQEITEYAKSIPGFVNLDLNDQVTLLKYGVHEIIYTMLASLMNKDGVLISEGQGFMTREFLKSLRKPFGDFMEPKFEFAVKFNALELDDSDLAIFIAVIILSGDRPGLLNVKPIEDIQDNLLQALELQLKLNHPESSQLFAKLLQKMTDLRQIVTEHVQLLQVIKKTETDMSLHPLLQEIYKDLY
Procedure: Digested DNA was adjusted with 0.1% phenol red. 4.6 nl of DNA solution was injected into the blastomeres of early one-cell stage embryos.
(§1) F0 fish were crossed with WT fish to identify germ-line transformed animals, as determined by agonist treatments and GFP expression. F1 progeny showing strong and consistent GFP responses were selected for F2 homozygote production. To avoid reporter GFP silencing of stable transgenic LT lines, homozygous fish showing strong and consistent GFP responses were selected for continued propagation of next generations.
PPARγ ligand trap zebrafish screens were performed under optimized conditions in 96-well format using the ImageXpress Velos Laser Scanning Cytometer. 1 or 2 dpf embryos were heat induced (28→37° C.) for 30 minutes, de-chorionated and then arrayed in 96-well plates (5 per well). Embryo water (0.075 g/L NaHCO3, 0.018 g/L Sea salt, 0.0084 g/L CaSO42H2O) was removed and 200 μl of fresh embryo water/well including dissolved small molecules or solvent was added.
Also included was the CoQ10 analog idebenone.

PPARα = molecular target: T3, PPARα (Homo sapiens, UniProt Q07869); test: PPARα ligand trap zebrafish GFP reporter assay; type: in vivo; parameters: pLT PPARα (aa 178-468) and pLT PPAR γ (aa 188-477) lines; expressed in transfected cells; host or cells: transgenic zebrafish embryos (ligand-trap line); conditions: transgenic embryos, 48 hpf
T3 sequence (Q07869 178-468): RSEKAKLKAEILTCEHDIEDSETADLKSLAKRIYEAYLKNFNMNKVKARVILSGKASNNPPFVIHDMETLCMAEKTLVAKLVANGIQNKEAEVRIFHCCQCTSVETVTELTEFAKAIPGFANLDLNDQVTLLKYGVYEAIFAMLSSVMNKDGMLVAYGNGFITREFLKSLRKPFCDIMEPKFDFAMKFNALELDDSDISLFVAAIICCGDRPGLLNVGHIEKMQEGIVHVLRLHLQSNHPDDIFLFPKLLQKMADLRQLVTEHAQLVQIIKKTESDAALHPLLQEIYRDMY
Procedure: Zebrafish were maintained at 28.5° C. on a 14/10 hour light/dark cycle and staged according to hours (h) or days (d) postfertilization. To generate pLT PPARα (aa 178-468) and pLT PPAR γ (aa 188-477) lines, plasmids were pre-digested with I-SceI (0.8 μg DNA, 1 μl I-SceI (New England Biolabs) 2 μl 10×I-SceI buffer, 1 μl BSA) for 20 min at 37° C. Digested DNA was adjusted with 0.1% phenol red. 4.6 nl of DNA solution was injected into the blastomeres of early one-cell stage embryos.
as §1
PPARγ ligand trap zebrafish screens were performed under optimized conditions in 96-well format using the ImageXpress Velos Laser Scanning Cytometer. 1 or 2 dpf embryos were heat induced (28→37° C.) for 30 minutes, de-chorionated and then arrayed in 96-well plates (5 per well). […] Embryos were incubated at 28° C. for 14 h, anesthetized with Tricaine (Sigma, Cat. # A-5040) and then analyzed for GFP fluorescence using the ImageXpress Velos Laser Scanning Cytometer.

[1] = molecular target: T4, human PPARγ LBD (residues 206-477) (Homo sapiens, UniProt P37231); test: Stargazer thermostabilization assay; type: binding; conditions: 0.2 mg/ml PPARγ LBD, heated to 80° C.
T4 construct: human PPARγ LBD (residues 206-477), expressed in pRSET; His tag (implied by Ni-NTA purification and the pRSET vector); made in house; host or cells: E. coli BL21 codon plus (pRSET)
T4 sequence (P37231 206-477 isoform P37231-2): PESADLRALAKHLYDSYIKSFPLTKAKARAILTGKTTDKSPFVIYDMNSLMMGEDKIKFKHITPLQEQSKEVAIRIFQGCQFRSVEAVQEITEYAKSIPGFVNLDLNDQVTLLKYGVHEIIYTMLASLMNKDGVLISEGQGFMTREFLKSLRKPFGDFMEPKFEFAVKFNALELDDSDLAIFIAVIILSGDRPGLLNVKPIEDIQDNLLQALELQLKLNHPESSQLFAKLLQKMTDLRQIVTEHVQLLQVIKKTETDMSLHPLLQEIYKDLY

hPPARδ/β = molecular target: T5, hPPARδ/β (Homo sapiens, UniProt Q03181); test: HEK293 cell culture luciferase reporter assay, hPPARδ/β; conditions: read-out: EC50 hPPARδ/β; HEK293, GAL4-hPPARδ/β LBD, luciferase
T5 sequence (Q03181 143-441): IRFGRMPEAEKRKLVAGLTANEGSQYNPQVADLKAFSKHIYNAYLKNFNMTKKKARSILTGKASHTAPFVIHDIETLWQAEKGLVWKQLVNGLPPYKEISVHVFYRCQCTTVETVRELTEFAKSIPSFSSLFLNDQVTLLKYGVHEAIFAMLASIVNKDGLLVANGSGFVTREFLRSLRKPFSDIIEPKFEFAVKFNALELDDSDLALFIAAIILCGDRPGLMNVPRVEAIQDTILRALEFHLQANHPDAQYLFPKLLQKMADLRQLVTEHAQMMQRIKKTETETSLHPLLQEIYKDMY

C57Bl/6 db/db mice = test: db/db mouse study (NAFLD features); type: in vivo; conditions: 10 mpk in food, 3 weeks, versus vehicle
Procedure: Db/db study: Forty male C57Bl/6 db/db mice (called B6.BKS(D)-Lepr db/J) were ordered from Jackson Laboratories (#000697) at 7 weeks of age. Mice were housed individually with free access to food (2016 Teklad Global 16% Protein Rodent Diet) and water on a 14 hour light/dark cycle (6 a.m. to 8 p.m. light). […] Food was exchanged on a daily bases. Harlan corn cob bedding was provided and was changed every week or as needed. Following a 1 week acclimation, 32 mice were chosen based on desired body weight range. Remaining mice were euthanized. Mice were randomized by body weight into four treatment groups (n=8) by body weight. Dosing occurred for 21 days. Mice were euthanized by CO2 euthanasia and livers were fixed in neutral buffered formalin (NBF) for 24 h, followed by a one day fixation in 30% Sucrose and 10% Sucrose. Oil O Red staining was performed through the Pathology Research Program at the University Health Network in Toronto [46]. [table] 100 mg of db/db livers were homogenized in RIPA buffer and protein concentration was quantified using a BCA protein assay kit (Cell signalling #7780) followed by measurement of ‘Thiobarbituric Acid Reactive Substances’ (TBARS) using a TBARS assay kit (Cayman Chemicals #10009055). Total RNA was extracted from 100 mg of db/db livers using RNA STAT-60 (Tel-Test, Inc.), treated with DNase I (RNase-free, Roche), and reverse transcribed into cDNA with random hexamers using the High Capacity Reverse transcription system (Applied Biosystems, ABI). Primers used are shown below and were validated as previously described. Real-time QPCR reactions were performed on an ABI 7900 in 384-well plates containing 12.5 ng cDNA, 150 nM of each primer, and 5 μl 2×SYBR Green PCR Master Mix (ABI) in a 10 μl total volume. Relative mRNA levels were calculated using the comparative Ct method normalized to cyclophilin mRNA.

[2] = test system: GFP-expressing leukocytes recruited in response to CuSO4; test: Zebrafish inflammation assay (CuSO4); type: in vivo; conditions: 10 μM CuSO4, 55 hpf embryos
Procedure: Assay was performed as described in [47]. Fifteen dechorionated 55 hpf (hours post fertilization) embryos were transferred in each well of 6-well plates in 6 ml of embryo water. Idebenone was added at increasing concentrations (0.25, 0.75, 1.5, 3 and 5 μM). Embryos were incubated in the dark for 1 hr at 28 C, followed by a second 40 min incubation with copper sulfate (CuSO4) at a final concentration of 10 μM at 28 C in the dark. Embryos were then transferred to Eppendorf tubes and fixed in 4% paraformaldehyde in 1×PBS overnight at 4 C in the dark. Numbers of GFP+ cells were counted along the lateral line/neuromast clusters.
Previous studies have shown that PPAR agonists have anti-inflammatory properties, and can be used to treat a variety of inflammatory responses. To test if this is also true for idebenone, we used a zebrafish model of inflammation. Exposure of fish larvae to copper sulfate causes non-invasive damage to neuromast cells, which form external clusters along the lateral midline. This inflammation can be visualized via the recruitment of GFP-expressing leukocytes. As expected, this recruitment of GFP positive cells could be alleviated by addition of the known anti-inflammatory agent ibuprofen (FIG. 11).

Response of PPARδ/β transgenic line (PPARδ/β): no response
GFP reporter activation in LT-PPARγ embryos (hPPARγ): dual agonists for PPARα and PPARγ
SMILES: COC1=C(OC)C(=O)C(C/C=C(\C)CC/C=C(\C)CC/C=C(\C)CC/C=C(\C)CC/C=C(\C)CC/C=C(\C)CC/C=C(\C)CC/C=C(\C)CC/C=C(\C)CCC=C(C)C)=C(C)C1=O [CoQ10, coenzyme Q10]
GFP response of PPARα LT line (PPARα): robust response; also recorded: dual agonists for PPARα and PPARγ

GFP reporter activation in LT-PPARγ embryos (hPPARγ): activity similar to idebenone and CoQ10
SMILES: COC1=C(OC)C(=O)C(C/C=C(\C)CCC=C(C)C)=C(C)C1=O [CoQ2, coenzyme Q2]

SMILES: COC1=C(OC)C(=O)C(CCCCCCCCCC[P+](c2ccccc2)(c2ccccc2)c2ccccc2)=C(C)C1=O [MitoQ, 10-[4,5-dimethoxy-2-methyl-3,6-dioxo-1,4-cycloheexadienl-yl]decyl triphenylphosphonium methanesulfonate]
GFP reporter activation in LT-PPARγ embryos (hPPARγ): failed to activate; also recorded: no activation

Shift of thermal denaturation transition temperature [1]: 8.5 °C
SMILES: COC1=C(OC)C(=O)C(C)=CC1=O [CoQ0, Coenzyme Q0]
GFP reporter activation in LT-PPARγ embryos (hPPARγ): relatively weak activity; also recorded: weak PPARγ activation

EC50 (hPPARδ/β): 12.8 nM
SMILES: O=C(O)COc1ccc(SCC=C(c2ccc(Br)cc2)c2ccc(Br)cc2)cc1Cl [CAY10592]

SMILES: CN(CCOc1ccc(CC2SC(=O)NC2=O)cc1)c1ccccn1 (stereo not shown) [rosiglitazone]
Gain in liver weight (C57Bl/6 db/db mice): 8.6%

SMILES: COC1=C(OC)C(=O)C(CC=C(C)C)=C(C)C1=O [CoQ1, coenzyme Q1]
GFP reporter activation in LT-PPARγ embryos (hPPARγ): relatively weak activity; also recorded: weak PPARγ activation

SMILES: O=C1C=CC(=O)C=C1 [1,4-benzoquinone]
GFP reporter activation in LT-PPARγ embryos (hPPARγ): did not induce a detectable response
GFP reporter activation in LT-PPARγ embryos (hPPARγ; listed as benzoquinone): no reporter activation

SMILES: CC(C)Cc1ccc(C(C)C(=O)O)cc1 (stereo not shown) [Ibuprofen]
Recruitment of GFP positive leukocytes (anti-inflammatory activity) [2]: alleviated

Source: patent publication US9770421B2, “Uses for idebenone and related benzoquinones in metabolic disorders and other PPAR α/γ related diseases and conditions” (INDANIO BIOSCIENCE INC., priority 2013, dated 2017)
